PubChem BioAssay (NCI)
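Method: 48-hour compound exposure of cells in 96-well plates, five concentrations, linear interpolation of endpoints. At the GI50, growth is halved. TGI is the concentration that stops growth completely.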

Tests used:
Experiment in all cases: inhibition of tumour cell growth, NCI panel, 48 h; in the data active = GI50 below about 0.43 µM; inactive = the rest
NCI-H226 lung = test system: NCI-H226 lung
LOX IMVI melanoma = test system: LOX IMVI melanoma
COLO 205 colon = test system: COLO 205 colon
CCRF-CEM leukemia = test system: CCRF-CEM leukemia
SF-268 CNS = test system: SF-268 CNS
UACC-62 melanoma = test system: UACC-62 melanoma
A498 renal = test system: A498 renal
786-0 renal = test system: 786-0 renal
T-47D breast = test system: T-47D breast
UACC-257 melanoma = test system: UACC-257 melanoma
SK-MEL-5 melanoma = test system: SK-MEL-5 melanoma
MOLT-4 leukemia = test system: MOLT-4 leukemia
M14 melanoma = test system: M14 melanoma
MDA-MB-435 = test system: MDA-MB-435
HT29 colon = test system: HT29 colon
U251 CNS = test system: U251 CNS
ACHN renal = test system: ACHN renal
OVCAR-5 ovarian = test system: OVCAR-5 ovarian
NCI/ADR-RES ovarian = test system: NCI/ADR-RES ovarian
NCI-H23 lung = test system: NCI-H23 lung
K-562 leukemia = test system: K-562 leukemia
IGROV1 ovarian = test system: IGROV1 ovarian
UO-31 renal = test system: UO-31 renal
NCI-H460 lung = test system: NCI-H460 lung
RPMI-8226 leukemia = test system: RPMI-8226 leukemia
A549 NSCLC = test system: A549 NSCLC
MALME-3M melanoma = test system: MALME-3M melanoma
CAKI-1 renal = test system: CAKI-1 renal
SNB-19 CNS = test system: SNB-19 CNS
NCI-H522 lung = test system: NCI-H522 lung
HL-60(TB) leukemia = test system: HL-60(TB) leukemia
SF-539 CNS = test system: SF-539 CNS
SW-620 colon = test system: SW-620 colon
PC-3 prostate = test system: PC-3 prostate
TK-10 renal = test system: TK-10 renal
MCF7 breast = test system: MCF7 breast
HOP-62 NSCLC = test system: HOP-62 NSCLC
SR leukemia = test system: SR leukemia
DU-145 prostate = test system: DU-145 prostate
RXF 393 renal = test system: RXF 393 renal
SK-MEL-28 melanoma = test system: SK-MEL-28 melanoma
SN12C renal = test system: SN12C renal
KM12 colon = test system: KM12 colon
SK-OV-3 ovarian = test system: SK-OV-3 ovarian
HCT-116 colon = test system: HCT-116 colon
SF-295 CNS = test system: SF-295 CNS
SK-MEL-2 melanoma = test system: SK-MEL-2 melanoma
HCC-2998 colon = test system: HCC-2998 colon
HS 578T breast = test system: HS 578T breast
HOP-92 NSCLC = test system: HOP-92 NSCLC
HCT-15 colon = test system: HCT-15 colon
BT-549 breast = test system: BT-549 breast
OVCAR-8 ovarian = test system: OVCAR-8 ovarian
OVCAR-4 ovarian = test system: OVCAR-4 ovarian
SNB-75 CNS = test system: SNB-75 CNS
MDA-MB-231 breast = test system: MDA-MB-231 breast
OVCAR-3 ovarian = test system: OVCAR-3 ovarian

O=C(Nc1cccc(-n2cc(-c3ccncc3)c(-c3ccc(Cl)c(O)c3)n2)c1)Nc1cccc(C(F)(F)F)c1
4.26 µM: TGI (SF-295 CNS)
22.4 µM: TGI (PC-3 prostate)
20.1 µM: TGI (MALME-3M melanoma)
20 µM: TGI (SR leukemia)
15.8 µM: TGI (SF-268 CNS)
21.4 µM: TGI (BT-549 breast)
26.8 µM: TGI (MDA-MB-231 breast)
19.1 µM: TGI (UACC-257 melanoma)
4.71 µM: TGI (SK-MEL-5 melanoma)
12.6 µM: TGI (MDA-MB-435)
9.58 µM: TGI (LOX IMVI melanoma)
11.6 µM: TGI (SF-539 CNS)
inactive: GI50 (NCI-H226 lung) 7.35 µM | GI50 (LOX IMVI melanoma) 2.53 µM | GI50 (COLO 205 colon) 7.9 µM | GI50 (CCRF-CEM leukemia) 1.4 µM | GI50 (SF-268 CNS) 1.95 µM | GI50 (UACC-62 melanoma) 1.65 µM | GI50 (A498 renal) 2.24 µM | GI50 (786-0 renal) 4.69 µM | GI50 (T-47D breast) 2.47 µM | GI50 (UACC-257 melanoma) 4.34 µM | GI50 (SK-MEL-5 melanoma) 1.3 µM | GI50 (MOLT-4 leukemia) 1.92 µM | GI50 (M14 melanoma) 1.4 µM | GI50 (MDA-MB-435) 1.49 µM | GI50 (HT29 colon) 9.82 µM | GI50 (U251 CNS) 1.59 µM | GI50 (ACHN renal) 1.29 µM | GI50 (OVCAR-5 ovarian) 13.7 µM | GI50 (NCI/ADR-RES ovarian) 2.14 µM | GI50 (NCI-H23 lung) 1.9 µM | GI50 (K-562 leukemia) 1.44 µM | GI50 (IGROV1 ovarian) 1.64 µM | GI50 (UO-31 renal) 1.86 µM | GI50 (NCI-H460 lung) 1.18 µM | GI50 (RPMI-8226 leukemia) 1.34 µM | GI50 (A549 NSCLC) 1.37 µM | GI50 (MALME-3M melanoma) 1.81 µM | GI50 (CAKI-1 renal) 1.75 µM | GI50 (SNB-19 CNS) 1.91 µM | GI50 (NCI-H522 lung) 1.46 µM | GI50 (HL-60(TB) leukemia) 1.45 µM | GI50 (SF-539 CNS) 3.54 µM | GI50 (SW-620 colon) 3.82 µM | GI50 (PC-3 prostate) 0.948 µM | GI50 (TK-10 renal) 2.12 µM | GI50 (MCF7 breast) 1.34 µM | GI50 (HOP-62 NSCLC) 6.86 µM | GI50 (SR leukemia) 1.82 µM | GI50 (DU-145 prostate) 1.76 µM | GI50 (RXF 393 renal) 3.02 µM | GI50 (SK-MEL-28 melanoma) 4.11 µM | GI50 (SN12C renal) 2.01 µM | GI50 (KM12 colon) 1.33 µM | GI50 (SK-OV-3 ovarian) 4.97 µM | GI50 (HCT-116 colon) 1.39 µM | GI50 (SF-295 CNS) 0.962 µM | GI50 (SK-MEL-2 melanoma) 2.02 µM | GI50 (HCC-2998 colon) 7.26 µM | GI50 (HS 578T breast) 3.31 µM | GI50 (HOP-92 NSCLC) 0.509 µM | GI50 (HCT-15 colon) 1.51 µM | GI50 (BT-549 breast) 6.51 µM | GI50 (OVCAR-8 ovarian) 1.57 µM | GI50 (OVCAR-4 ovarian) 3.18 µM | GI50 (SNB-75 CNS) 3.65 µM | GI50 (MDA-MB-231 breast) 3.59 µM | GI50 (OVCAR-3 ovarian) 1.06 µM
8.26 µM: TGI (HCT-116 colon)
6.91 µM: TGI (UACC-62 melanoma)
10.8 µM: TGI (M14 melanoma) | TGI (SK-MEL-2 melanoma)
> 32.5 µM: TGI (NCI-H226 lung) | TGI (CCRF-CEM leukemia) | TGI (A498 renal) | TGI (786-0 renal) | TGI (T-47D breast) | TGI (MOLT-4 leukemia) | TGI (HT29 colon) | TGI (ACHN renal) | TGI (OVCAR-5 ovarian) | TGI (NCI/ADR-RES ovarian) | TGI (NCI-H23 lung) | TGI (K-562 leukemia) | TGI (IGROV1 ovarian) | TGI (UO-31 renal) | TGI (RPMI-8226 leukemia) | TGI (A549 NSCLC) | TGI (CAKI-1 renal) | TGI (SNB-19 CNS) | TGI (HL-60(TB) leukemia) | TGI (SW-620 colon) | TGI (TK-10 renal) | TGI (MCF7 breast) | TGI (HOP-62 NSCLC) | TGI (DU-145 prostate) | TGI (SK-MEL-28 melanoma) | TGI (SN12C renal) | TGI (KM12 colon) | TGI (SK-OV-3 ovarian) | TGI (HCC-2998 colon) | TGI (HS 578T breast) | TGI (HCT-15 colon) | TGI (OVCAR-8 ovarian) | TGI (OVCAR-4 ovarian) | TGI (SNB-75 CNS)
14.5 µM: TGI (NCI-H522 lung)
2.23 µM: TGI (HOP-92 NSCLC)
7.65 µM: TGI (U251 CNS)
12 µM: TGI (RXF 393 renal)
6.13 µM: TGI (OVCAR-3 ovarian)
23.8 µM: TGI (COLO 205 colon)
29 µM: TGI (NCI-H460 lung)
